Measured values from PMC10300102, “In vivo inhibition of nuclear ACE2 translocation protects against SARS-CoV-2 replication and lung damage through epigenetic imprinting” (Nature Communications, 2023).
“And” between values parts separate entries of the source, which are not always exact repeats. Identical values can stand only once. Like-named read-outs stand apart in the source and are kept apart here. Where a SMILES comes first, the peptide text is derived from it. The star is where a group is joined. Myristoyl = CCCCCCCCCCCCCC(=O)*

Key:
SARS-CoV-2 = assay type: in vivo, golden Syrian hamsters
[1] = system: lung bronchiole and alveoli cell types; test: Cell type deconvolution analysis of NanoString DSP data; assay type: in vivo, golden Syrian hamsters; parameters: cell type proportion: macrophages: unit not given here; details: for cell type proportion: B / cell type proportion: NK / cell type proportion: T / cell type proportion: Treg / cell type proportion: endothelial / cell type proportion: fibroblasts / cell type proportion: mDCs / cell type proportion: macrophages / cell type proportion: mast / cell type proportion: monocytes / cell type proportion: neutrophils / cell type proportion: pDCs / cell type proportion: plasma: individual ROIs of H023 and H017
Method: Cell type deconvolution analysis was performed using R package SpatialDecon[68]. The Q3 normalized count matrix from NanoString DSP data and the safeTME[68] immune cell profile matrix were used as the query and reference input, respectively, to reveal cell type abundance within each of the selected ROIs. Cell type proportion for each selected ROI was visualized using a stack bar plot, where ROIs were grouped by tissue region (bronchioles vs. alveoli) and experimental condition (control and NACE2i-treated samples). In addition, given the non-normal distribution of the data, the Wilcoxon test was performed to compare each cell type proportion in controls against NACE2i-treated ROIs. The distribution of each cell type and p-value for the comparisons were visualized in box plots.

[2] = In vitro monkey plasma assay; assay type: in vitro ADME, cynomolgus monkey; details: for Concentration: single replicates
Method: Briefly, pooled frozen plasma was thawed at 37 °C prior to experiments. Plasma was centrifuged at 3720 x g for 5 min and any clots were removed. All blanks and working solutions were aliquoted on an Apricot automation workstation (2 μL/well of working solution (100 μM) with 98 μL plasma for NACE2i peptide (CP300638) and control compounds somatostatin acetate and procaine hydrochloride). All reaction plates containing mixtures of NACE2i, somatostatin acetate, and procaine hydrochloride and plasma were incubated at 37 °C in a water bath for 0, 15, 30, 60, 120, 240, and 360 min. Incubation was stopped with 4% H3PO4 and stop solution (200 ng/mL tolbutamide and 200 ng/mL labetalol in MeOH) to precipitate protein. Each plate was sealed and shaken for 20 min and then centrifuged at 3720 x g at 4 °C for 20 min. After centrifugation, the Apricot workstation was used to transfer 150 μL supernatant to each bioanalysis plate, which was then sealed and shaken for 10 min prior to LC-MS/MS analysis as per the manufacturer’s guidelines. LC: Shimadzu LC 30-AD, MS: QTRAP 6500 + , Autosampler: CTC PAL.

[3] = parameters: species or system golden Syrian hamsters; details: hamster, in vivo
[4] = system: perforin-positive and CD3+ cells; assay type: in vivo, golden Syrian hamsters; details: hamster lungs 2 dpi; for %CD3+ / %Perforin+: individual animals, n=5
ACE2 = biological target: T1, ACE2 (Homo sapiens, UniProt Q9BYF1); test: ACE2 activity assay in Caco2 cell lysates; assay type: biochemical; details: Caco2 cells treated 50 µM 24 h, fluorometric kit, n = 3 technical replicates
T1 construct: endogenous in cells; host or cells: Caco2
T1 sequence (Q9BYF1 18-805): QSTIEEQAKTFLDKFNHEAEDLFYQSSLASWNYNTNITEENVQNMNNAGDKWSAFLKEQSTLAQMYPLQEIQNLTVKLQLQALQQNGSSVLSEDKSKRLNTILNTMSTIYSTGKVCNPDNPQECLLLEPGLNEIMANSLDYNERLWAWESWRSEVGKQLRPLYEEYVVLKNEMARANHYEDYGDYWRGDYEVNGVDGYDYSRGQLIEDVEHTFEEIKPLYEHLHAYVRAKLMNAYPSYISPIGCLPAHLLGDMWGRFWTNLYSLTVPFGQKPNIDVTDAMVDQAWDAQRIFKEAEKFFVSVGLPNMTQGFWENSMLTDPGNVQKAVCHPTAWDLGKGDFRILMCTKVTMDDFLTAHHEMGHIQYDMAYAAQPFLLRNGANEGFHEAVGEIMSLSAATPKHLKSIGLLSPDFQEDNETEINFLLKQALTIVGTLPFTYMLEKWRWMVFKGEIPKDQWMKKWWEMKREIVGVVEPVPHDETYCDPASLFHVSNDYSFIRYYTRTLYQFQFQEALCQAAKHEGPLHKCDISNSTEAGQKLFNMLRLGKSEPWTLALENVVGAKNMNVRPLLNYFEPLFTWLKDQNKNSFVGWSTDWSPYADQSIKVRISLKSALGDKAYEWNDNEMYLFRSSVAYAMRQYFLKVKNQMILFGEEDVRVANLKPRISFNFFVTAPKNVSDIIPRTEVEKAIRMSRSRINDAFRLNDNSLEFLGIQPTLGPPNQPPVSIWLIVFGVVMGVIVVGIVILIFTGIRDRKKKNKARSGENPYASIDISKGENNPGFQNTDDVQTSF
Method: Caco2 cells were seeded in T75 flasks using complete DMEM medium as above. Cells were treated with NACEi2 (50 µM) for 24 h. 1 × 10^6 cells were harvested, and the ACE2 activity assay was performed using the ACE2 Activity Assay Kit (Fluorometric) (ab273297, Abcam, Cambridge, UK) following the manufacturer’s instructions. ACE2 positive control with diluted ACE2 inhibitor was used as a negative control, and cell lysate with lysis buffer only was used as the background control. Fluorescence (Ex/Em = 320/420 nm) was measured in kinetic mode for 30 min (5 min intervals) at room temperature with a Biotek Synergy H4 Multimode Scanner.

PBMCs = assay type: cell-based, human; details: 10 µM 24 h
[5] = hamsters, escalating daily i.p. doses up to 100 mg/kg
SARS-CoV-2 spike protein = system: SARS-CoV-2 spike protein; parameters: species or system golden Syrian hamsters; details: hamster, in vivo
[6] = system: SARS-CoV-2 (QLD02) in Caco2 cells; details: cited from earlier work

For CCCCCCCCCCCCCC(=O)N[C@H](C(=O)NCC(=O)N[C@H](C(=O)N[C@@H](CCCNC(=N)N)C(=O)N[C@@H](CC(=O)O)C(=O)N[C@@H](CCCNC(=N)N)C(=O)N[C@@H](CCCCN)C(=O)N[C@@H](CCCCN)C(=O)N[C@@H](CCCCN)C(=O)N[C@@H](CC(N)=O)C(=O)N[C@@H](CCCCN)C(=O)N[C@@H](C)C(=O)N[C@@H](CCCNC(=N)N)C(=O)N[C@@H](CO)C(=O)O)[C@@H](C)CC)[C@@H](C)O [NACE2i] (Myristoyl-TGIRDRKKKNKARS-OH), the “viral RNA in the lungs” value (SARS-CoV-2; hamster, in vivo) was “significant reductions”, the “decrease in lung viral RNA normalized to vehicle controls” value (SARS-CoV-2; n=7, 15 mg/kg) was 88% and the “decrease in lung viral RNA normalized to vehicle controls” value (SARS-CoV-2; n=8, 100 mg/kg) was 96%. The “cell type proportion: B” value ([1]; Alveoli_NACE2i) was 23.6847 and 32.4439 and 22.6247 and 29.4388 and 26.4374 and 25.048 and 27.5277 and 28.9903 and 27.2409 and 34.2892 and 28.9637 and 28.8675, the “cell type proportion: NK” value ([1]; Alveoli_NACE2i) was 17.1939 and 16.5847 and 20.9543 and 18.0108 and 22.2943 and 18.4617 and 20.087 and 18.6524 and 17.3616 and 14.6317 and 17.3619 and 17.6717 and the “cell type proportion: T” value ([1]; Alveoli_NACE2i) was 16.6413 and 6.4009 and 15.4997 and 7.4175 and 8.025 and 5.045 and 6.1551 and 0 (2×) and 10.2833 and 5.973 and 3.9643. The “cell type proportion: Treg” value ([1]; Alveoli_NACE2i) was 0 (6×) and 1.553 and 8.1921 and 4.323 and 1 and 11.0807 and 5.06, the “cell type proportion: endothelial” value ([1]; Alveoli_NACE2i) was 28.1806 and 29.4553 and 29.583 and 29.8626 and 25.5168 and 33.6067 and 33.1024 and 36.1595 and 33.2493 and 33.1189 and 27.1461 and 36.2683 and the “cell type proportion: fibroblasts” value ([1]; Alveoli_NACE2i) was 1.176 and 0.714 and 0.4633 and 0.8459 and 0.7981 and 0.4825 and 0.7109 and 0.76 and 1.098 and 0.6031 and 0.7444 and 1.019. For the same compound, the “cell type proportion: mDCs” value ([1]; Alveoli_NACE2i) was 0 (10×) and 0.2521 and 0.6557, the “cell type proportion: macrophages” value ([1]; Alveoli_NACE2i) was 5.388 and 3.326 and 1.773 and 2.095 and 8.024 and 0.205 and 7.196 and 5.143 and 2.92 and 3.5372 and 2.755 and 4.269 and the “cell type proportion: mast” value ([1]; Alveoli_NACE2i) was 3.016 and 2.78 and 3.108 and 4.739 and 2.682 and 3.555 and 2.55 and 3.279 and 2.68 and 3.582 and 4.658 and 2.8819. For the same compound, the “cell type proportion: monocytes” value ([1]; Alveoli_NACE2i) was 0.03537 and 0 (11×), the “cell type proportion: neutrophils” value ([1]; Alveoli_NACE2i) was 1.753 and 2.9035 and 1.994 and 3.2852 and 1.817 and 0.9729 and 2.361 and 0.2488 and 2.135 and 0.8335 and 0.7054 and 0.8644 and the “cell type proportion: pDCs” value ([1]; Alveoli_NACE2i) was 0. The “cell type proportion: plasma” value ([1]; Alveoli_NACE2i) was 2.932 and 5.391 and 3.999 and 2.753 and 4.405 and 4.431 and 0.3105 and 2.193 and 2.376 and 2.431 and 2.621 and 3.0985, the “cell type proportion: B” value ([1]; Bronchiole_NACE2i) was 0 (4×) and 36.4151 and 8.716 and 15.9886 and 32.8168 and 11.1034 and 35.5652 and 45.4372 and 7.351 and the “cell type proportion: NK” value ([1]; Bronchiole_NACE2i) was 23.9964 and 22.2229 and 20.8895 and 32.9425 and 10.1656 and 15.473 and 6.835 and 10.348 and 25.7402 and 11.1678 and 15.6048 and 32.6588. The “cell type proportion: T” value ([1]; Bronchiole_NACE2i) was 18.2436 and 18.4266 and 38.1438 and 0 (3×) and 5.53 and 45.4382 and 35.2758 and 13.8104 and 20.1994 and 29.1879, the “cell type proportion: Treg” value ([1]; Bronchiole_NACE2i) was 0 (5×) and 21.836 and 33.8509 and 20.1505 and 4.85 and 5.947 and 12.5635 and 16.1845 and the “cell type proportion: endothelial” value ([1]; Bronchiole_NACE2i) was 16.4013 and 5.225 and 10.2999 and 2.966 and 17.2008 and 10.2265 and 6.188 and 5.584 and 8.968 and 11.6958 and 12.5764 and 14.8185. The “cell type proportion: fibroblasts” value ([1]; Bronchiole_NACE2i) was 2.825 and 0.8593 and 2.185 and 1.129 and 1.957 and 1.105 and 1.635 and 0.3982 and 0.8306 and 1.6 and 2.113 and 2.3944, the “cell type proportion: mDCs” value ([1]; Bronchiole_NACE2i) was 0 (10×) and 0.9775 and 1.142 and the “cell type proportion: macrophages” value ([1]; Bronchiole_NACE2i) was 5.529 and 0 and 0.1628 and 4.651 and 2.104 and 14.1819 and 29.1261 and 22.5397 and 28.7793 and 1.462 and 3.082 and 5.048. The “cell type proportion: mast” value ([1]; Bronchiole_NACE2i) was 7.052 and 8.207 and 2.9723 and 2.068 and 4.233 and 1.198 and 2.171 and 3.272 and 0 and 1.897 and 1.1071 and 8.014, the “cell type proportion: monocytes” value ([1]; Bronchiole_NACE2i) was 0 (11×) and 0.2701 and the “cell type proportion: neutrophils” value ([1]; Bronchiole_NACE2i) was 9.945 and 11.5606 and 12.9563 and 15.2877 and 1.922 and 0 and 1.136 and 5.344 and 0.585 and 0.3256 and 4.512 and 3.83. For the same compound, the “cell type proportion: pDCs” value ([1]; Bronchiole_NACE2i) was 0.5957 and 4.06 and 4.2347 and 0 (6×) and 1.875 and 1.074 and 1.693, the “cell type proportion: plasma” value ([1]; Bronchiole_NACE2i) was 15.4112 and 7.333 and 8.156 and 7.105 and 0.3226 and 1.788 and 1.644 and 1.037 and 2.72 and 1.151 and 2.026 and 6.866 and the “NK cells in bronchiolar regions” value ([1]; infected hamsters 2 dpi) was “increased”. The “macrophages in bronchiolar regions” value ([1]; infected hamsters 2 dpi) was “significantly decreased”, the Concentration ([2]; cynomolgus monkey plasma, time 0 min) was 2270 nM and 2330 nM and the Concentration ([2]; cynomolgus monkey plasma, time 15 min) was 1960 nM and 1620 nM. For the same compound, the Concentration ([2]; cynomolgus monkey plasma, time 30 min) was 2060 nM and 2030 nM, the Concentration ([2]; cynomolgus monkey plasma, time 60 min) was 1840 nM and 1540 nM and the Concentration ([2]; cynomolgus monkey plasma, time 120 min) was 1740 nM and 1890 nM. For the same compound, the Concentration ([2]; cynomolgus monkey plasma, time 240 min) was 1980 nM and 1920 nM, the “% Remaining” value ([2]; cynomolgus monkey plasma, time 360 min, n=2) was 76.7741% and the Concentration ([2]; cynomolgus monkey plasma, time 360 min) was 1740 nM and 1850 nM. The remaining at 0.25 h, 2 µM ([2]; monkey, plasma (pooled, frozen), cynomolgus monkey plasma, time 15 min, n=2) was 86.2%, the remaining at 0.5 h, 2 µM ([2]; monkey, plasma (pooled, frozen), cynomolgus monkey plasma, time 30 min, n=2) was 90.6% and the remaining at 1 h, 2 µM ([2]; monkey, plasma (pooled, frozen), cynomolgus monkey plasma, time 60 min, n=2) was 81.1%. It also gave a remaining at 2 h, 2 µM ([2]; monkey, plasma (pooled, frozen), cynomolgus monkey plasma, time 120 min, n=2) of 76.6%, a remaining at 4 h, 2 µM ([2]; monkey, plasma (pooled, frozen), cynomolgus monkey plasma, time 240 min, n=2) of 87.4% and a half-life at 2 µM ([2]; pooled male cynomolgus monkey plasma, 2 µL of 100 µM working solution + 98 µL plasma, 37 °C, 0-360 min, LC-MS/MS, read-out: T1/2 in plasma) of 867 min. For the same compound, the “% remaining in plasma after 360 min incubation” value ([2]; pooled male cynomolgus monkey plasma, 2 µL of 100 µM working solution + 98 µL plasma, 37 °C, 360 min, LC-MS/MS) was 78%, the “decrease in mean body weights” value [3] was “lower than vehicle controls” and the “%CD3+” value ([4]; i.p. NACE2i) was 7.228% and 6.247% and 7.351% and 8.086%. The “%Perforin+” value ([4]; i.p. NACE2i) was 14.1151% and 9.254% and 20.5795% and 12.5121%, the “%CD3+” value ([4]; i.v. NACE2i) was 6.775% and 4.046% and 7.435% and 7.728% and 7.891% and the “%Perforin+” value ([4]; i.v. NACE2i) was 8.914% and 7.676% and 12.1345% and 7.891% and 7.955%. The “number of CD3+ cells” value ([4]; i.v. or i.p.) was “significantly increased”, the “proportion of perforin-positive cells” value ([4]; i.v. or i.p.) was “significantly increased” and the ACE2 enzymatic activity (ACE2) was “no impact”. The IL-6 expression (PBMCs) was “reduced”, the perforin expression (PBMCs) was “increased” and the body temperature [5] was “minimal changes in body temperature”. The body weight [5] was “without a decrease in body weight”, the discomfort [5] was “no observable discomfort” and the “SARS-CoV-2 spike protein signal intensity” value (SARS-CoV-2 spike protein) was “significantly reduced”. For the same compound, the “population of SARS-CoV-2 spike protein-positive cells in bronchiolar epithelium” value (SARS-CoV-2 spike protein) was “significantly reduced” and the “SARS-CoV-2 replication in Caco2 cells” value [6] was “significantly inhibit”.
